Results taken from patent publication US8946478B2, “Benzamide derivative with anticancer activity and preparation method and use thereof” (Zhejiang Hisun Pharmaceutical Co., Ltd., priority 2010, dated 2015).

Columns and labels:
[1] = test system: human breast cancer cell strain MCF-7; assay: In vitro SRB tumor cell growth inhibition (GI50); type: cell-based; conditions: Homo sapiens, MCF7, 48 h, MCF-7 cells
Protocol: (§1) Human colon cancer cell strains (Colo205 and HCT-116), human breast cancer cell strains (MCF-7 and MDA-MB435), human lung cancer cell strains (A549, 95D and NCI460), human ovarian cancer cell strains (OVCAR-5, OVCAR-8, HO8910 and SKOV-3), human leukemia (HL-60 and K562), human prostate cancer (DU145 and BXPC-3), human uterine cancer (Hela), human pancreatic cancer (PANC-1), human hepatoma (HepG 2) were all obtained from ATCC. Colo205, HL-60, K562 cells were cultured in RPMI 1640 containing 2 mM/L glutamine, 10% FBS, 1.0 mM sodium pyruvate. HCT-116, MCF-7, A549, 95D, HO8910, NCI460, OVCAR-5, OVCAR-8, DU145, BXPC-3, Hela, PANC-1, HepG2 cells were cultured in DMEM containing 2 mM/L glutamine, 10% FBS. MDA-MB435 cells were cultured in L-15 containing 2 mM/L glutamine, 10% FBS. SKOV-3 cells were cultured in McCoy's containing 2 mM/L glutamine, 10% FBS. Colo205, HL-60 and K562 cells were seeded in 96-well plates, 150 μL/well and 8000 cells/well, and the 96-well plates were pre-incubated in an incubator at 37° C. with 5% CO2, 100% relative humidity for 24 hours. HCT-116, MCF-7, NCI460, OVCAR-5, OVCAR-8, Hela, HepG 2 and MDA-MB435 cells were seeded in 96-well plates, 5000 cells/well; A549, 95D, HO8910, DU145, BXPC-3, PANC-1 and SKOV-3 cells were seeded in 96-well plates, 10000 cells/well, and the 96-well plates were pre-incubated in an incubator at 37° C. with 5% CO2, 100% relative humidity for 24 hours, to allow the cells to adhere.
(§2) 50 μL of pre-cooled 50% (mass/volume) TCA was added into the time zero control wells for each cell strain to fix the cells. To other wells, 50 μL of various concentrations of compounds were added, and maintained for 48 h, wherein each drug concentration was in triplicate, and there were blank control wells (cell culture medium without cells), drug-free control wells (with no drugs but the same volume of complete medium) and positive drug BSI-201 control wells, and the plates were incubated in an incubator at 37° C. with 5% CO2, full humidity (100% relative humidity) for 48 hours
(§3) 50 μL pre-cooled 50% (mass/volume) TCA was added onto the surface of the culture medium to fix the cells, which was then placed at 4° C. for 1 h. The supernatant was removed and each well was washed with deionized water for 5 times to remove TCA, serum proteins, etc. After dried in the air, about 100 μL enough amount of 0.4% SRB (formulated with 1% acetic acid) was added into each well, and was placed at room temperature for 20 to 30 min. Liquid in each well was discarded and each well was rapidly washed with 1% acetic acid for five times, to remove unbound dye until the unbound dye was completely rinsed clean. After dried in the air until the moisture was invisible, each well was added 200 μL Tris base to dissolve, shaken on a plate oscillator for 5 min or mixed by beating up and down with a pipette tip, and then measured on the multi-function instruction (M5 Detection System, MD Group Ltd.) with a detection wavelength of 515 nm, zero adjusted with 690 nm blank control.
(§4) The dose-response curve was plotted by XL-fit to determine the GI50 value.

[2] = test system: human breast cancer cell strain MDA-MB435; assay: In vitro SRB tumor cell growth inhibition (GI50); type: cell-based; conditions: Homo sapiens, MDA-MB-435, 48 h, MDA-MB435 cells
Protocol: as §1, §2, §3, §4

[3] = test system: human colon cancer cell strain Colo205; assay: In vitro SRB tumor cell growth inhibition (GI50); type: cell-based; conditions: Colo 205 cells, 48 h
Protocol: as §1, §2, §3, §4

[4] = test system: human colon cancer cell strain HCT-116; assay: In vitro SRB tumor cell growth inhibition (GI50); type: cell-based; conditions: Homo sapiens, HCT-116, 48 h, HCT-116 cells
Protocol: as §1, §2, §3, §4

[5] = test system: human hepatoma HepG 2; assay: In vitro SRB tumor cell growth inhibition (GI50); type: cell-based; conditions: HepG2, HepG 2 cells, 48 h
Protocol: as §1, §2, §3, §4

[6] = test system: human leukemia HL-60; assay: In vitro SRB tumor cell growth inhibition (GI50); type: cell-based; conditions: Homo sapiens, HL-60, 48 h, HL-60 cells
Protocol: as §1, §2, §3, §4

[7] = test system: human leukemia K562; assay: In vitro SRB tumor cell growth inhibition (GI50); type: cell-based; conditions: Homo sapiens, K562, 48 h, K562 cells
Protocol: as §1, §2, §3, §4

[8] = test system: human lung cancer cell strain 95D; assay: In vitro SRB tumor cell growth inhibition (GI50); type: cell-based; conditions: Homo sapiens, 95-D, 48 h, 95D cells
Protocol: as §1, §2, §3, §4

[9] = test system: human lung cancer cell strain A549; assay: In vitro SRB tumor cell growth inhibition (GI50); type: cell-based; conditions: A549 cells, 48 h
Protocol: as §1, §2, §3, §4

[10] = test system: human lung cancer cell strain NCI-460; assay: In vitro SRB tumor cell growth inhibition (GI50); type: cell-based; conditions: Homo sapiens, NCI-460, 48 h, NCI-460 cells
Protocol: as §1, §2, §3, §4

[11] = test system: human ovarian cancer cell strain HO8910; assay: In vitro SRB tumor cell growth inhibition (GI50); type: cell-based; conditions: HO-8910, HO8910 cells, 48 h
Protocol: as §1, §2, §3, §4

[12] = test system: human ovarian cancer cell strain OVCAR-5; assay: In vitro SRB tumor cell growth inhibition (GI50); type: cell-based; conditions: OVCAR-5 cells, 48 h
Protocol: as §1, §2, §3, §4

[13] = test system: human ovarian cancer cell strain OVCAR-8; assay: In vitro SRB tumor cell growth inhibition (GI50); type: cell-based; conditions: OVCAR-8 cells
Protocol: as §1, §2, §3, §4

[14] = test system: human ovarian cancer cell strain SKOV-3; assay: In vitro SRB tumor cell growth inhibition (GI50); type: cell-based; conditions: SK-OV-3, SKOV-3 cells, 48 h
Protocol: as §1, §2, §3, §4

[15] = test system: human pancreatic cancer PANC-1; assay: In vitro SRB tumor cell growth inhibition (GI50); type: cell-based; conditions: Homo sapiens, PANC-1, 48 h, PANC-1 cells
Protocol: as §1, §2, §3, §4

[16] = test system: human prostate cancer BXPC-3; assay: In vitro SRB tumor cell growth inhibition (GI50); type: cell-based; conditions: BXPC-3 cells, 48 h
Protocol: as §1, §2, §3, §4

[17] = test system: human prostate cancer DU145; assay: In vitro SRB tumor cell growth inhibition (GI50); type: cell-based; conditions: Homo sapiens, DU-145, 48 h, DU145 cells
Protocol: as §1, §2, §3, §4

[18] = test system: human uterine cancer Hela; assay: In vitro SRB tumor cell growth inhibition (GI50); type: cell-based; conditions: Homo sapiens, HeLa, 48 h, Hela cells
Protocol: as §1, §2, §3, §4

[19] = test system: 18 tumor cell strains; assay: In vitro efficacy screening, summary over the tumor cell strains; type: cell-based, human; conditions: in vitro screening; for inhibitory effects on tumor cell proliferation (in words): BSI-201 as positive drug
Protocol: as §1, §2, §3, §4

Row | GI50 [1] | GI50 [2] | GI50 [3] | GI50 [4] | GI50 [5] | GI50 [6] | GI50 [7] | GI50 [8] | GI50 [9] | GI50 [11] | GI50 [12] | GI50 ([13]; Homo sapiens, OVCAR-8, 48 h) | GI50 [14] | GI50 [15] | GI50 [16] | GI50 [17] | GI50 [18] | Compound | GI50 [10] | efficacy in inhibition of tumor cell proliferation, graded in words against I-1 [19] | inhibitory effects on tumor cell proliferation (in words) [19] | also measured
1 | 20.6 µM | 8.49 µM | 2.61 µM | 9.99 µM | 5.54 µM | 2.24 µM | 4.35 µM | 15.1 µM | 17.3 µM | 4.85 µM | 20.3 µM | 4.01 µM | 9.91 µM | 7.64 µM | 3.35 µM | 4.99 µM | 8.98 µM | C#Cc1ccc(C(=O)N2CCCC2)cc1[N+](=O)[O-] [Compound I-20, (4-ethynyl-3-nitrophenyl)(pyrrolidin-1-yl)ketone] | 19.9 µM | slightly lower than that of I-1 | have inhibitory effects on tumor cell proliferation | –
2 | 16.1 µM | 5.86 µM | 1.52 µM | 8.44 µM | 16 µM | 2.87 µM | 1.77 µM | 14.5 µM | 17.9 µM | 4.34 µM | 17.5 µM | 1.64 µM | 22.5 µM | 12.5 µM | 3.91 µM | 2.24 µM | 4.17 µM | C#Cc1ccc(C(=O)N2CCCCC2)cc1[N+](=O)[O-] [Compound I-21, (4-ethynyl-3-nitrophenyl)(piperidin-1-yl)ketone] | 5.86 µM | slightly lower than that of I-1 | have inhibitory effects on tumor cell proliferation | –
3 | 21.5 µM | 14.5 µM | 10.9 µM | 8.62 µM | 7.12 µM | 2.47 µM | 8.03 µM | 25.8 µM | 30.1 µM | 10.2 µM | 35.6 µM | – | 9.77 µM | 24.3 µM | 10.2 µM | 6.17 µM | 10.1 µM | C#Cc1ccc(C(=O)N2CCN(C)CC2)cc1[N+](=O)[O-] [Compound I-24, (4-ethynyl-3-nitrophenyl)(4-methylpiperazin-1-yl)ketone] | 31.1 µM | slightly lower than that of I-1 | have inhibitory effects on tumor cell proliferation | GI50 ([13]; 48 h): 8.92 µM
